Laboratory results reported in patent publication US10669290B2, “Beta-lactamase inhibitors” (priority 2012, dated 2020).
Converted amounts (≈) assume the structure as drawn.

Assays:
[1] = test system: K.P. 156319 KPC-3; experiment: Broth microdilution MIC, K. pneumoniae 156319; format: cell-based; conditions: for MIC of exemplary compounds in presence of fixed β-lactams, Fixed Mero, K.P. 156319 KPC-3: fixed meropenem 4 μg/mL, CAMHB, 16-20 hours 37° C.
[2] = test system: K.P. A-1797 KPC-2 VIM-4; experiment: Broth microdilution MIC, K. pneumoniae A-1797; format: cell-based; conditions: Klebsiella pneumoniae; partner antibiotic alone, K. pneumoniae expressing KPC-2 and VIM-4
[3] = test system: S. aureus MSSA-7 PC-1; experiment: Broth microdilution MIC, S. aureus MSSA-7; format: cell-based; conditions: Staphylococcus aureus, partner antibiotic alone, S. aureus producing Class A penicillinase PC-1
[4] = test system: E. coli ESBL4 CTX-M-15; experiment: Broth microdilution MIC, E. coli ESBL4; format: cell-based; conditions: fixed ceftazidime 4 μg/mL, CAMHB, 16-20 hours 37° C.
Method in brief: (§1)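 Strains grew 3-5 hours in CAMHB before use. Serial 2-fold compound dilutions (final 32 to 0.25 μg/mL) were overlaid with β-lactam at a constant 4 μg/ml, inoculated following CLSI, then incubated 16-20 h at 37° C before visual MIC determination.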

[5] = target: T1, OXA-1 (Escherichia coli, UniProt P13661); experiment: β-Lactamase inhibition, OXA-1 (nitrocefin substrate); format: biochemical
T1 construct: made in house; host or cells: E. coli BL21 (DE3)
Experimental: (§2) For SHV-5, Kpc-2, p99AmpC and OXA-1 β-lactamases, E. coli BL21 (DE3) bacterial cells carrying expression plasmids (expressed as native untagged proteins) for the individual β-lactamases were grown in 1 L of Superbroth (Teknova Inc. Hollister, Calif.) supplemented with 100 μg/ml kanamycin selection and 1×5052 (0.5% glycerol, 0.05% glucose and 0.2% α-lactose) at 35° C. for 18-20 hours. Cells were harvested by centrifugation (4,000×g, 4° C., 20 min), resuspended in 50 ml of 10 mM HEPES pH 7.5 ( 1/20 of the initial volume). The cells were lysed by sonication (5 pulses of 45 seconds) at 45 W on ice. The lysates were clarified by centrifugation at 10,000×g for 40 minutes at 4° C. Samples were diluted 5-fold in 50 mM sodium acetate pH 5.0, stored overnight at 4° C., after which they were centrifuged at 10,000×g for 30 minutes to clarify, and filtered through 0.45 µm filters. The samples were loaded onto a 5 ml Capto S sepharose cation exchange column (GE Healthcare) pre-equilibrated with 50 mM sodium acetate pH 5.0. […] Active fractions were pooled concentrated, quantitated by BCA protein determination (Thermo Scientific, Rockford, Ill.), dialyzed into PBS and frozen at −80° C. in 20% glycerol until use.
(§3) An equal volume of diluted enzyme stock was added, and the plates were incubated at 37° C. for 15 min. […] Absorbance at 486 nm was immediately monitored for 10 min using a Biotek Powerwave XS2 microplate spectrophotometer using the GEN5 software package (Biotek Instruments, Winooski Vt.). In an analogous fashion, imipenem was used as substrate for Kpc-2 and Cefotaxime was used for SHV-5, while changes in absorbance upon hydrolysis of the β-lactam ring were monitored at 300 nm and 260 nm respectively in UV-transparent 96-well microtiter assay plates. Maximum rates of hydrolysis were compared to those in control wells (without inhibitors), and percentages of enzyme inhibition were calculated for each concentration of inhibitor. […]

[6] = test system: P. aerug. Ps296 VIM-2; experiment: Broth microdilution MIC, P. aeruginosa Ps296; format: cell-based; conditions: fixed meropenem 4 μg/mL, CAMHB, 16-20 hours 37° C.
Method in brief: as §1

[7] = target: T2, SHV-5 (Klebsiella pneumoniae, UniProt P0A3M1); experiment: β-Lactamase inhibition, SHV-5 (cefotaxime substrate); format: biochemical
T2 construct: made in house; host or cells: E. coli BL21 (DE3)
Experimental: as §2, §3

[8] = test system: E. cl 144200 p99 AmpC; experiment: Broth microdilution MIC, E. cloacae 144200; format: cell-based; conditions: fixed ceftazidime 4 μg/mL, CAMHB, 16-20 hours 37° C.
Method in brief: as §1

[9] = test system: K.P. A-1797 KPC-2 VIM-4; experiment: Broth microdilution MIC, K. pneumoniae A-1797; format: cell-based; conditions: fixed meropenem 4 μg/mL, CAMHB, 16-20 hours 37° C.
[10] = target: T3, p99 AmpC (Enterobacter cloacae, UniProt P05364); experiment: β-Lactamase inhibition, p99 AmpC (nitrocefin substrate); format: biochemical
T3 construct: made in house; host or cells: E. coli BL21 (DE3)
Experimental: For SHV-5, Kpc-2, p99AmpC and OXA-1 β-lactamases, E. coli BL21 (DE3) bacterial cells carrying expression plasmids (expressed as native untagged proteins) for the individual β-lactamases were grown in 1 L of Superbroth (Teknova Inc. Hollister, Calif.) supplemented with 100 μg/ml kanamycin selection and 1×5052 (0.5% glycerol, 0.05% glucose and 0.2% α-lactose) at 35° C. for 18-20 hours. Cells were harvested by centrifugation (4,000×g, 4° C., 20 min), resuspended in 50 ml of 10 mM HEPES pH 7.5 ( 1/20 of the initial volume). The cells were lysed by sonication (5 pulses of 45 seconds) at 45 W on ice. The lysates were clarified by centrifugation at 10,000×g for 40 minutes at 4° C. Samples were diluted 5-fold in 50 mM sodium acetate pH 5.0, stored overnight at 4° C., after which they were centrifuged at 10,000×g for 30 minutes to clarify, and filtered through 0.45 µm filters. The samples were loaded onto a 5 ml Capto S sepharose cation exchange column (GE Healthcare) pre-equilibrated with 50 mM sodium acetate pH 5.0. The column was washed with 5 column volumes of 50 mM sodium acetate pH 5.0 to wash out unbound protein and a linear gradient of NaCl (0 to 500 mM) was used to elute the protein (over 16 CV) from the column. Fractions were assayed for β-lactamase activity using Centa (Calbiochem, Gibbstown, N.J.) or Nitrocefin (EMD Millipore chemicals, Darmstadt, Germany) as a reporter β-lactamase substrate for activity in the isolated fractions. Active fractions were pooled, concentrated and further purified by gel filtration chromatography on a Superdex 75 prep grade gel filtration column (GE Healthcare, Piscataway, N.J.) pre-equilibrated in 50 mM Hepes pH 7.5, 150 mM NaCl. Active fractions were pooled concentrated, quantitated by BCA protein determination (Thermo Scientific, Rockford, Ill.), dialyzed into PBS and frozen at −80° C. in 20% glycerol until use.
An equal volume of diluted enzyme stock was added, and the plates were incubated at 37° C. for 15 min. Nitrocefin was used as substrate for p99 AmpC, VIM-2 and OXA-1 and dispensed into each well at a final concentration of 100 μM. Absorbance at 486 nm was immediately monitored for 10 min using a Biotek Powerwave XS2 microplate spectrophotometer using the GEN5 software package (Biotek Instruments, Winooski Vt.). In an analogous fashion, imipenem was used as substrate for Kpc-2 and Cefotaxime was used for SHV-5, while changes in absorbance upon hydrolysis of the β-lactam ring were monitored at 300 nm and 260 nm respectively in UV-transparent 96-well microtiter assay plates. Maximum rates of hydrolysis were compared to those in control wells (without inhibitors), and percentages of enzyme inhibition were calculated for each concentration of inhibitor. The concentration of inhibitor needed to reduce the initial rate of hydrolysis of substrate by 50% (IC50) was calculated as the residual activity of β-lactamase at 486 nm using GraFit version 7 kinetics software package (Erithacus Software, Surrey, UK).
Using the methodology described above, examples of the current invention were evaluated for their ability to inhibit β-lactamase enzymes from all four Ambler classifications (A through D). […] NT=Not tested.

[11] = target: T4, VIM-2 (Escherichia coli, UniProt Q5U7L7); experiment: β-Lactamase inhibition, VIM-2 (nitrocefin substrate); format: biochemical
T4 construct: made in house; host or cells: E. coli BL21 (DE3)
Experimental: as §2, with “use. […]” for “use.”
as §3

[12] = target: T5, KPC-2 (Klebsiella pneumoniae, UniProt Q9F663); experiment: β-Lactamase inhibition, KPC-2 (imipenem substrate); format: biochemical
T5 construct: made in house; host or cells: E. coli BL21 (DE3)
Experimental: as §2, §3

T2 sequence (P0A3M1 22-286): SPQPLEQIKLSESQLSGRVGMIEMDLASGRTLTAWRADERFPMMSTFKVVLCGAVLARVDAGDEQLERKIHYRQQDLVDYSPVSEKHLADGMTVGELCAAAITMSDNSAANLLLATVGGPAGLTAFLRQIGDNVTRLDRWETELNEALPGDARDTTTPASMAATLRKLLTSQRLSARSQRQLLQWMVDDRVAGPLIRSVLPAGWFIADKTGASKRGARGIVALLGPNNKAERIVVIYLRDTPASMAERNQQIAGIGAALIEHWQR
T3 sequence (P05364 21-381): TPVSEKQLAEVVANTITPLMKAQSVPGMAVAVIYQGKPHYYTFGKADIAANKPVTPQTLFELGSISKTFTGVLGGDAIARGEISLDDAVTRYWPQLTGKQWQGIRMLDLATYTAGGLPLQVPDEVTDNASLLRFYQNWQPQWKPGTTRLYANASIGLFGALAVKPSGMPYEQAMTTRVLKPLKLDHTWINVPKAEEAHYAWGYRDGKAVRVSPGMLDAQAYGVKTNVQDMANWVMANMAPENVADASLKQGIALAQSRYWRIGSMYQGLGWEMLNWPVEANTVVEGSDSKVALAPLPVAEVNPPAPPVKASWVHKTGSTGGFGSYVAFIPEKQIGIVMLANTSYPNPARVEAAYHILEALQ
T1 sequence (P13661 26-276): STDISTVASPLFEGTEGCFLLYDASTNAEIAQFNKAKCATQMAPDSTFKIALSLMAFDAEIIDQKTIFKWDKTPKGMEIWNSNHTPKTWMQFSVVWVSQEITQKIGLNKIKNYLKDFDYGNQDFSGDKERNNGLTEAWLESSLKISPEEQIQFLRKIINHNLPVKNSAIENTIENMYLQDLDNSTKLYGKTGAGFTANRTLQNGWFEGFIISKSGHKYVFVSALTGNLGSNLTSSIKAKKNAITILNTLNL
T5 sequence (Q9F663 25-293 limits assumed): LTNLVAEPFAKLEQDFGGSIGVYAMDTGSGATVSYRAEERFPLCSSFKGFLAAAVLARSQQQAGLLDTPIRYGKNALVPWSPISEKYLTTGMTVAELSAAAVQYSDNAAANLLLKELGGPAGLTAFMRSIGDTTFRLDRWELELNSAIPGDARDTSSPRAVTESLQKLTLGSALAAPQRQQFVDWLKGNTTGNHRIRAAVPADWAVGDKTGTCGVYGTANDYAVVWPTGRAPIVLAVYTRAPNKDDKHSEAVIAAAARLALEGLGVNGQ

Row | SMILES | MIC ([1]; Klebsiella pneumoniae, read-out: MIC alone) [µg/mL] | MIC [2] [µg/mL] | MIC [3] [µg/mL] | MIC of exemplary compounds in presence of fixed β-lactams, Fixed CAZ, E. coli ESBL4 CTX-M-15 [4] | IC50 [5] [nM] | MIC of exemplary compounds in presence of fixed β-lactams, Fixed Mero, P. aerug. Ps296 VIM-2 [6] | IC50 [7] [nM] | MIC of exemplary compounds in presence of fixed β-lactams, Fixed CAZ, E. cl 144200 p99 AmpC [8] | MIC of exemplary compounds in presence of fixed β-lactams, Fixed Mero, K.P. A-1797 KPC-2 VIM-4 [9] | MIC of exemplary compounds in presence of fixed β-lactams, Fixed Mero, K.P. 156319 KPC-3 [1] | IC50 [10] [nM] | IC50 [11] [nM] | IC50 [12] [nM]
1 | C[C@@H](O)[C@H]1C(=O)N2C(C(=O)O)=C(S[C@@H]3CN[C@H](C(=O)N(C)C)C3)[C@H](C)[C@H]12 [Meropenem, reference compound] | > 128 | 64 (≈ 167 µM) | – | – | – | – | – | – | – | – | – | – | –
2 | CCN1CCN(C(=O)N[C@@H](C(=O)N[C@@H]2C(=O)N3[C@@H]2SC(C)(C)[C@@H]3C(=O)O)c2ccccc2)C(=O)C1=O [Piperacillin] | – | – | 64 (≈ 124 µM) | – | – | – | – | – | – | – | – | – | –
3 | N[C@H]1CC(C(=O)N[C@H]2Cc3cccc(C(=O)O)c3OB2O)C[C@@H]1N (mixture of isomers) [Example 19, (3R)-3-[[(3S,4S)-3,4-diaminocyclopentanecarbonyl]amino]-2-hydroxy-3,4-dihydro-1,2-benzoxaborinine-8-carboxylic acid and (3R)-3-[[(3R,4R)-3,4-diaminocyclopentanecarbonyl]amino]-2-hydroxy-3,4-dihydro-1,2-benzoxaborinine-8-carboxylic acid] | – | – | – | C (C represents the MIC in the presence of <4 μg/mL of a β-lactamase inhibitor of exemplary compounds) | < 100 | C (C represents the MIC in the presence of <4 μg/mL of a β-lactamase inhibitor of exemplary compounds) | 100 to 1000 | C (C represents the MIC in the presence of <4 μg/mL of a β-lactamase inhibitor of exemplary compounds) | C (C represents the MIC in the presence of <4 μg/mL of a β-lactamase inhibitor of exemplary compounds) | C (C represents the MIC in the presence of <4 μg/mL of a β-lactamase inhibitor of exemplary compounds) | < 100 | < 100 | < 100
4 | NC[C@@H]1CC[C@@H](CC(=O)N[C@H]2Cc3cccc(C(=O)O)c3OB2O)C[C@H]1CN (mixture of isomers) [Example 18, (3R)-3-[[2-[(1S,3S,4S)-3,4-bis(aminomethyl)cyclohexyl]acetyl]amino]-2-hydroxy-3,4-dihydro-1,2-benzoxaborinine-8-carboxylic acid and (3R)-3-[[2-[(1R,3R,4R)-3,4-bis(aminomethyl)cyclohexyl]acetyl]amino]-2-hydroxy-3,4-dihydro-1,2-benzoxaborinine-8-carboxylic acid] | – | – | – | C (C represents the MIC in the presence of <4 μg/mL of a β-lactamase inhibitor of exemplary compounds) | < 100 | C (C represents the MIC in the presence of <4 μg/mL of a β-lactamase inhibitor of exemplary compounds) | < 100 | C (C represents the MIC in the presence of <4 μg/mL of a β-lactamase inhibitor of exemplary compounds) | B (B represents the MIC in the presence of between 8 and 32 μg/mL of a β-lactamase inhibitor of exemplary compounds) | C (C represents the MIC in the presence of <4 μg/mL of a β-lactamase inhibitor of exemplary compounds) | < 100 | < 100 | < 100
